Experiments:
[1] = cited from earlier work
dopamine reuptake = conditions: cited from earlier work
[2] = 2.5 mg of Focalin has the same therapeutic benefit as 5.0 mg of Ritalin; cited from earlier work
[3] = tested on: boys 9-12 years of age with ADHD combined subtype; test: Infrared motion analysis of head marker movements during a 15-minute cognitive control task (Quotient Test), PRE and 120 minutes POST probe dose MPH; type: in vivo, human
Experimental: Data were analyzed from a study approved and monitored by the McLean Hospital Institutional Review Board […]. The ADHD sample consisted of 62 boys between 9-12 years of age who met Diagnostic and Statistical Manual of Mental Disorders, 4th edition (DSM-IV) (Diagnostic and statistical manual of mental disorders: DSM-IV.—4th ed., text revision. Washington, D.C: American Psychiatric Association; 2000) criteria for ADHD combined subtype. Subjects were recruited from the general population via newspaper advertisement for hyperactive boys who were currently or previously treated with MPH, as the protocol called from them to receive a moderately large probe dose of immediate release MPH. This was easier to justify in subjects known to tolerate MPH without untoward effects. Parental written consent and child verbal assent were obtained. […] Seventy-three boys went through the screening procedures, which included structured interviews for DSM-IV Axis I psychiatric diagnoses using K-SADS-E (Orvaschel H, Puig-Antich J. Schedule for Affective Disorder and Schizophrenia for School-Age Children, Epidemiologic Version, Fifth Revision. Fort Lauderdale, Fla.: Nova Southeastern University; 1994); and parent ratings on the Conners' Hyperactivity Index (Conners et al., J Abnorm Child Psychol. 26:257 (1998)) and Achenbach Child Behavior Checklist (CBCL) (Achenbach T. Integrative Guide to the 1991 CBCL/4-18, YSR, and TRF Profiles. Burlington, Vt.: University of Vermont, Department of Psychology; 1991). Children with ADHD could not have any current major mood disorder, psychosis, tic disorder, a major anxiety disorder, or mental retardation. Children with oppositional defiant disorder (ODD), or reported learning disorders, could participate. From this pool of subjects, 11 were excluded from further participation. […] One subject was disqualified for drug use, another was disqualified for current antidepressant treatment of night terrors, and one withdrew before the probe dose. […] In this sample, there were 19 boys with comorbid ODD, 2 with current dysthymia, 4 with learning disorders, and 3 with past major depression or past anxiety disorders. […] Sixty of these subjects were previously included in a study examining fluctuations in attentional state (Teicher et al., J Child Adolesc Psychopharmacol. 14:219 (2004)), and 48 were included in a study on pharmacokinetic-pharmacodynamic response to methylphenidate (Teicher et al., J Child Adolesc Psychopharmacol. 16:416 (2006)).
For comparison, we analyzed data from a representative non-clinical contrast group. This group consisted of 62 male students, randomly selected from a sample of 1168 subjects (6-14 years of age) tested at local public schools using teacher ratings and a computerized attention task with infrared motion analysis (Teicher et al., J Am Acad Child Adolesc Psychiatry 35:334 (1996); Quotient Test, BioBehavioral Diagnostic Company, Cambridge, Mass.). This large-scale database development study was approved by the McLean Hospital IRB and the school administrators. Parents provided written consent and children gave verbal assent to participate. Subjects selected from this sample were male, and matched 1:1 with the ADHD subjects by age to the nearest month (11.0±1.0 years). The selection criteria applied for this analysis was that they needed to have Conners' Teacher Ratings (Conners C K. American Journal of Psychiatry 126:884 (1969)) that were within ±1 SD of the mean of peers their own age and gender (i.e., T score<60), to help exclude subjects with potential ADHD.
Children with ADHD were tested prior to (PRE) and 120-minutes following (POST) a probe dose of 0.4 mg/kg MPH. Contrast subjects only received a single Quotient Test, which was specifically designed to provide objective measures of hyperactivity, inattention and impulsivity (Teicher et al., J Am Acad Child Adolesc Psychiatry 35:334 (1996)). […]

SMILES: CNCC[C@@H](Oc1ccccc1C)c1ccccc1 [Atomoxetine]
- coverage of symptoms associated with ADHD ([1]; clinical trials in adults and children): 24 h

SMILES: CC(NC(C)(C)C)C(=O)c1cccc(Cl)c1 (stereo not drawn) [Bupropion]
- potency as inhibitor of dopamine reuptake relative to norepinephrine reuptake (dopamine reuptake): about twice as potent

SMILES: COC(=O)[C@H](c1ccccc1)[C@H]1CCCCN1 [Focalin]
- potency relative to methylphenidate [2]: twice as potent
- onset of action, in words ([1]; after administration): immediately

SMILES: COC(=O)C(c1ccccc1)C1CCCCN1 (stereo not drawn) [MPH, methylphenidate]
- MLE in ADHD after MPH relative to contrast subjects ([3]; ADHD POST vs contrast): 4.8 fold
- ROC Area for MLE, ADHD POST vs contrast subjects ([3]; ADHD POST vs contrast): 0.995
- ROC Area for β, ADHD POST vs contrast subjects ([3]; ADHD POST vs contrast): 0.850
- effect size d' for MLE, ADHD after MPH vs contrast subjects ([3]; ADHD POST vs contrast): 3.1
- percentage of ADHD subjects with evidence for a deterministic chaotic component to head movements after MPH ([3]; MLE vs surrogate data, fell from 84% PRE, 41/62 POST): 66%
- baseline and spike amplitudes and spike numbers relative to contrast group ([3]; Max-Pass, ADHD POST vs contrast controls): suppressed to at or below contrast group levels
- reduction of spike amplitude ([3]; Max-Pass, POST (120 min after 0.4 mg/kg MPH) vs PRE): 52%
- reduction of baseline amplitude ([3]; Max-Pass, POST (120 min after 0.4 mg/kg MPH) vs PRE, 62 ADHD boys): 63%
- reduction of number of spikes ([3]; Max-Pass, POST vs PRE): 35%
- effect size of MPH on ApEn, β and MLE ([3]; POST vs PRE): 1.0-1.2
- within subject reduction in composite inhibitory measures ([3]; baseline and spike amplitude, POST vs PRE): 58.3%±39.9%
- ADHD subjects POST with evidence for a deterministic component to head positions ([3]; correlation dimension method with surrogate data, 56/62 PRE): 62/62
- inhibitory measures POST MPH vs controls ([3]; first 5 minutes of the test): did not differ from controls
- non-linear measures POST MPH vs controls ([3]; first 5 minutes of the test): remained distinctly different than controls
- Spike area (SpArea) PST AVG ([3]; post-medication ADHD subjects, N 62, PRE AVG 100897.28, CTRL AVG 42396.0034): 36631.5066
- baseline and spike amplitudes relative to contrast group ([3]; spike detection by cluster analysis, ADHD POST vs contrast controls): at or below contrast group levels
- reduction in composite measures of positional stability ([3]; β, MLE, POST vs PRE): 16.6%±19.2%
